From patent publication EP0025528A1, “1-(2-Acetylphenylthio)-3-alkylamino-2-propanols and their acid-addition salts, process for their preparation and medicines containing them” (A. Nattermann & Cie. GmbH, priority 1979, dated 1981)
Like-named read-outs stand apart in the source and are kept apart here.

What was measured:
Reserpinisierte Ratte = experiment: Intrinsic sympathomimetic activity (ISA) in reserpinised anaesthetised rat; assay type: in vivo, Wistar-Ratten; conditions: intravenous; maximal heart-rate increase (mean of 6 animals) relative to 1,0 µg Isoprenalin/kg i.v.; reserpine 5 mg/kg i.p. 24 h before
Experimental: Die Tiere bekamen 24 Stunden vor Versuchsbeginn 5 mg Reserpin/kg intraperitoneal. Die Herzfrequenz wurde aus der Blutdruckamplitude (Polyäthylenkatheter mit aufgesetztem Stathamelement in der rechten Arteria femoralis) mit Hilfe eines Kardiotachometers abgenommen und auf einem Schreiber fortlaufend registriert. Die Applikation der Testlösungen erfolgte über einen Katheter in der linken Vena femoralis. Es wurden von jeder Testverbindung vier ansteigende Dosen getrennt jeweils an sechs verschiedenen Tieren geprüft.
Die maximale Steigerung der Herzfrequenz (Mittelwert aus 6 Tieren) durch die einzelnen Testverbindungen wurde als Maß für ihre agonistische Aktivität genommen und in Prozent der Frequenzsteigerung durch 1,0 µg Isoprenalin/kg Körpergewicht i.v. errechnet.

in vivo = conditions: for LD50 at 168 h: mouse
Excerpt: Die akute Toxizität wurde an NMRI-Mäusen durch intravenöse bzw. orale Gabe von steigenden Dosen der erfindungsgemäßen Verbindung ermittelt.

Narkotisierte Katze = experiment: Anaesthetised cat: inhibition of isoprenaline-induced tachycardia (competitive ß-adrenergic antagonism in vivo); set-up: species or system Katzen; conditions: Felis catus, read-out: ED50 Hemmung der Isoprenalin-induzierten Herzfrequenzsteigerung
Excerpt: Zum Nachweis des kompetitiven ß-adrenergischen Antagonismus in vivo wurden mischrassige Katzen beiderlei Geschlechts und in Chloralose-Pentobarbitalnarkose verwendet. […] Die Registrierung erfolgte über ein Stathamelement aus einem Beckman Dynograph Typ R. Aus der Blutdruckamplitude wurde mit Hilfe eines Kardiotachometers die Herzfrequenz abgenommen und auf einem weiteren Kanal des Dynographen aufgezeichnet. Die Applikation der Testlösungen erfolgte über einen Katheter in die linke Vena femoralis. Es wurde die inhibierende Wirkung ansteigender Testsubstanz-Dosen auf die durch i.v.Gabe von 0,5 gg Isoprenalin/kg Körpergewicht induzierte Tachykardie bzw. Hypotonie (Blutdrucksenkung) geprüft. Als ED50-Werte wurden in der Tabelle die Dosen der Referenz- bzw. erfindungsgemäßen Verbindung eingetragen, die die Isoprenalineffekte jeweils auf die Hälfte reduzierten.

[1] = intravenous, cat under chloralose-pentobarbital anaesthesia, isoprenaline 0,5 gg/kg i.v., dose halving the isoprenaline effect

SMILES | ß-sympathomimetische Eigenaktivität (ISA) in % der sympathomimetischen Aktivität von Isoprenalin (Reserpinisierte Ratte) [%] | selectivity ratio (in vivo; iv) | LD50 at 168 h (in vivo; iv) [mg/kg] | ED50 (Narkotisierte Katze; [1]) [mg/kg] | LD50 at 168 h (in vivo; po) [mg/kg] | ED50 (Narkotisierte Katze; iv) [mg/kg]
CC(=O)Nc1ccc(OCC(O)CNC(C)C)cc1 (centres unmarked) [Practolol] | 54 | 1030 | 148 | 0.144 |  | 
CC(=O)c1ccccc1SCC(O)CNC(C)(C)C (racemic) [Beispiel 1, 1-(2-Acetylphenylthio)-3-tert.-butyl-amino-2-propanol] | 33 | 2520 | 111 | 0.044 | 667 | 
CC(C)NCC(O)COc1cccc2ccccc12 (centres unmarked) [Propranolol] | 0 |  |  |  |  | 0.017
